Measured values from US8101624B2, “Quinazoline derivatives” (Aska Pharmaceutical Co., Ltd., priority 2006, dated 2012).

Biological target: T1, human recombinant PDE9 protein (hsPDE9A1) (Homo sapiens, UniProt O76083)
T1 construct: made in house; host or cells: COS-1 cells (transient transfection, pcDNA 3.1(+))
Experiment: Measurement of PDE9-inhibiting activity ([3H]-cGMP hydrolysis)
Type: biochemical
Settings: for inhibition at 1 µM: human recombinant PDE9, read-out: Inhibiting Activity PDE9 (percent inhibition at 1 μM)
Method: (1) Measurement of PDE9-Inhibiting Activity:
1) Preparation of Human Recombinant PDE9 Protein
Based on the base sequence of hsPDE9A1 registered with GenBank database (accession No.: AF048837), hsPDE9A1 fragment was amplified by polymerase chain reaction under the following conditions, using the following sequence (Amasham Pharmacia Biotech) as the primer and Human Prostate […] cDNA library (CLONTECH) as the template DNA, with Pfu Turbo DNA polymerase ([…]):
PCR condition: [95° C., 5 min]×1 cycle, [(95° C., 1 min), (58° C., 2 min), (72° C., 3 min)]×25 cycles, [72° C., 10 min]×1 cycle
Thus obtained hsPDE9A1 fragment was given a restricted enzymatic treatment with NheI and NotI, and thereafter inserted into pcDNA 3.1(+) expression vector (Invitrogen) to let it serve as a human PDE9 expression vector.
Human PDE9 expression vector-transformed Escherichia coli was mass incubated to produce a large amount of human PDE9 expression vector, which was transiently transfected into COS-1 cells, with LIPOFECTAMINE 2000 Reagent (GIBCO). The cells were homogenized in ice-cooled buffer A (40 mmol/L Tris-HCl, pH7.5, 15 mmol/L benzamidine, 15 mmol/L 2-mercaptoethanol, 1 μg/mL Pepstatin A, 1 μg/mL Leupeptin, 5 mmol/L EDTA) and centrifuged at 4° C., 14,000×g for 10 minutes. The supernatant was isolated to provide human recombinant PDE9 protein solution.
2) Measurement of PDE9-Inhibiting Activity
To 150 μL of buffer B (70 mmol/L Tris-HCl, pH7.5; 16.7 mmol/L MgCl2, 33.3 nmol/L [^3H]-cGMP) solution containing [^3H]-cGMP (specific activity=244.2 GBq/mmol) at a concentration of 33.3 nmol/L, 50 μL of a solution of the compound to be evaluated (formed by dissolving the compound in DMSO and diluting it with distilled water to DMSO concentration of 5%) and 50 μL of the PDE9 protein solution as prepared in the above, as diluted with buffer C (40 mmol/L Tris-HCl, pH7.5, 15 mmol/L benzamidine, 15 mmol/L 2-mercaptoethanol, 1 μg/mL Pepstatin A, 1 μg/mL Leupeptin) by 1,500×, were added under cooling with ice. This mixed solution was incubated at 30° C. for 30 minutes and the enzymatic reaction of PDE9 was terminated by heating the system in boiling water for 90 seconds. Returning the system to room temperature, 50 μL of Snake venom (SIGMA: 1 mg/mL) was added, followed by 10 minutes' incubation at 30° C., to convert the [^3H]-5′-GMP produced in the previous reaction to [^3H]-guanosine. This reaction solution was passed through a column filled with 1 mL of 0.5 mol/L hydrochloric acid-activated cation-exchange resin (Bio-Rad AG50W-X4 resin, mesh size 200-400) and removed of the unreacted substrate ([^3H]-cGMP) by elution with 12 mL of distilled water. Thereafter [^3H]-guanosine was eluted with 3 mL of 3 mol/L aqueous ammonia and its radiation activity was measured with liquid scintillation counter.
PDE9 inhibition of the tested compound can be calculated by the following formula: […]
From the percent inhibition at various concentration levels of each tested compound, its IC50 value against PDE9 can be determined.

T1 sequence (O76083 whole entry): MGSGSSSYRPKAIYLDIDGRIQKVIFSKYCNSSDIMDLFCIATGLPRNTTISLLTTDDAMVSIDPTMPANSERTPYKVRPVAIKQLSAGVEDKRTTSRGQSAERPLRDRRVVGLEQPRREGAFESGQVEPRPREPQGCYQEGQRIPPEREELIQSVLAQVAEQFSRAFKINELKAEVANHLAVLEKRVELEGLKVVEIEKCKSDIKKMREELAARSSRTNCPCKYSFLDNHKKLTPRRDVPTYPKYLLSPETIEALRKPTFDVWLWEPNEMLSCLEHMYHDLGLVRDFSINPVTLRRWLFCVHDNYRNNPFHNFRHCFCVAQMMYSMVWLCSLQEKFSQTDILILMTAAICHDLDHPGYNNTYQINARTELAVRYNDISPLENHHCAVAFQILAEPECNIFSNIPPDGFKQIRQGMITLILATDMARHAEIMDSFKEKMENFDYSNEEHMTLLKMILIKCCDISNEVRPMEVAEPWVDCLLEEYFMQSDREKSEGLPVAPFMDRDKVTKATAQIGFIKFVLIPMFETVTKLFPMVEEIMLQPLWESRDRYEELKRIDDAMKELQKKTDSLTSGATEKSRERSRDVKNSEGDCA

| SMILES | inhibition at 1 µM | further results |
| --- | --- | --- |
| Cn1c(Cc2cccc(Cl)c2)nc2cc(C(=O)O)ccc2c1=O [Referential Example 1, 2-(3-Chlorobenzyl)-3-methyl-4-oxo-3,4-dihydroquinazoline-7-carboxylic acid, reference compound] | – | PDE9-inhibiting activity relative to that of the compound of Example 1 (ratio of activity versus Example 1): less than 1/100 |
| COc1ccc(Cc2nc3cc(C(=O)O)ccc3c(=O)[nH]2)cc1OC [Example 3, 2-(3,4-Dimethoxybenzyl)-4-oxo-3,4-dihydroquinazoline-7-carboxylic acid] | 11% | – |
| O=C(O)c1ccc2c(=O)[nH]c(Cc3ccccn3)nc2c1 [Example 6, 4-Oxo-2-(2-pyridylmethyl)-3,4-dihydroquinazoline-7-carboxylic acid] | – | IC50 (human recombinant PDE9 expressed in COS-1 cells, 30° C., 30 minutes): 1360 nM |
| O=C(O)c1ccc2c(=O)[nH]c(Cc3cccnc3)nc2c1 [Example 7, 4-Oxo-2-(3-pyridylmethyl)-3,4-dihydroquinazoline-7-carboxylic acid] | 30% | – |
| COc1cccc(Cc2nc3cc(C(=O)O)ccc3c(=O)[nH]2)c1 [Example 5, 2-(3-Methoxybenzyl)-4-oxo-3,4-dihydroquinazoline-7-carboxylic acid] | 41% | – |
